This is an account of results in PubChem BioAssay (NCI).

Each structure is given as a SMILES string.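 The compound was tested at five concentrations on cells cultured in 96-well plates, with a 48-hour exposure period. TGI: total growth inhibition.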 Where a SMILES comes first, the peptide text is derived from it. [ ]: non-standard residue; d: D form. The star is where a group is joined. Boc = CC(C)(C)OC(=O)*; Lac = C[CH](O)C(=O)O; OBn = c1ccc(CO*)cc1 Some results are limits rather than exact numbers.

Some test systems named below: A498 renal; EKVX NSCLC; HCT-116 colon; HT29 colon; KM20L2 colon; MOLT-4 leukemia; NCI-H226 lung; OVCAR-4 ovarian; OVCAR-8 ovarian; SK-MEL-5 melanoma; UACC-62 melanoma; UO-31 renal; XF 498 CNS; LXFL 529 NSCLC; SR leukemia; TK-10 renal; DU-145 prostate; HS 578T breast; MDA-MB-435; MDA-N.
Common to all, as to assay: NCI anticancer screen, dose series, 48 h

In the case of `N/C(=N\N=C/c1ccc(O)c(O)c1O)NO`, the TGI with A498 renal was above 100 µM; in the assay on EKVX NSCLC, above 100 µM; with HCT-116 colon it was above 59.6 µM; with HT29 colon, 35.1 µM; in the assay on KM20L2 colon, 82.5 µM; in the assay with MOLT-4 leukemia it was above 66.6 µM. For the same molecule, the TGI in the assay with NCI-H226 lung was above 77 µM; in the assay on OVCAR-4 ovarian, 25.5 µM; in the assay with OVCAR-8 ovarian, above 54.1 µM; in the assay on SK-MEL-5 melanoma it was 45.1 µM; in the assay on UACC-62 melanoma it was 41.5 µM; in the assay with UO-31 renal it was above 100 µM. Also, the TGI in the assay on XF 498 CNS is above 100 µM.

`O=C1N(Cl)C(=O)C(c2ccc(Cl)cc2)(c2ccc(Cl)cc2)N1Cl`: the TGI in the assay on A498 renal, in the assay with EKVX NSCLC, in the assay on HCT-116 colon, with HT29 colon, in the assay with KM20L2 colon and with LXFL 529 NSCLC was above 100 µM throughout. Also, the TGI in the assay on MOLT-4 leukemia, with NCI-H226 lung, in the assay on OVCAR-4 ovarian, with OVCAR-8 ovarian, with SK-MEL-5 melanoma and with SR leukemia was above 100 µM throughout. Further, the TGI in the assay with TK-10 renal, with UO-31 renal and with XF 498 CNS was above 100 µM each time.

On to `NC(CCCCCCCCCCP(=O)(O)O)C(=O)O` (stereo unspecified), for which the TGI in the assay with DU-145 prostate, in the assay with EKVX NSCLC, in the assay with HCT-116 colon, in the assay with HS 578T breast, in the assay with HT29 colon and in the assay with MDA-MB-435 was above 100 µM in each case. Further, the TGI in the assay on MDA-N, with MOLT-4 leukemia, in the assay with OVCAR-4 ovarian, in the assay on OVCAR-8 ovarian, with SK-MEL-5 melanoma and in the assay with SR leukemia was above 100 µM throughout. Moreover, the TGI in the assay on TK-10 renal, in the assay on UACC-62 melanoma and in the assay with UO-31 renal was above 100 µM throughout.

As for `CC(OC(=O)C(Cc1ccccc1)NC(=O)C(Cc1ccccc1)NC(=O)OC(C)(C)C)C(=O)OCc1ccccc1` (stereo not drawn) (Boc-Phe-Phe-[Lac]-OBn; configuration not given here), the TGI in the assay on DU-145 prostate, in the assay on HCT-116 colon, in the assay on HS 578T breast, in the assay with MDA-MB-435, in the assay with MDA-N and in the assay with MOLT-4 leukemia was above 100 µM throughout. Besides, the TGI with NCI-H226 lung, with OVCAR-8 ovarian, in the assay with SK-MEL-5 melanoma, in the assay on SR leukemia and with UO-31 renal was above 100 µM each time.

Consider `CC1(C)CCc2ccc(OCCC(=O)O)cc2O1`, for which the TGI with EKVX NSCLC, in the assay on HCT-116 colon, with HT29 colon, in the assay on LXFL 529 NSCLC, in the assay on MOLT-4 leukemia and with NCI-H226 lung was above 100 µM throughout. Further, the TGI in the assay with OVCAR-4 ovarian, with OVCAR-8 ovarian, in the assay with SK-MEL-5 melanoma, with SR leukemia, in the assay with UACC-62 melanoma and in the assay on UO-31 renal was above 100 µM in each case.
